Data published in patent US20240019437A1, “METHODS FOR THE DIAGNOSIS AND THE TREATMENT OF GRAFT-VERSUS-HOST DISEASE” (INSERM (INSTITUT NATIONAL DE LA SANTÉ ET DE LA RECHERCHE …, priority 2020, published 2024).

Molecular target: T1, CD73 (Homo sapiens, UniProt P21589)
T1 construct: Eight different CD73-expressing DP8α TREG clones were all separately co-cultured; endogenous in cells; host or cells: CD73-expressing DP8α Treg clones (human T cell clones)
T1 sequence (P21589 27-549): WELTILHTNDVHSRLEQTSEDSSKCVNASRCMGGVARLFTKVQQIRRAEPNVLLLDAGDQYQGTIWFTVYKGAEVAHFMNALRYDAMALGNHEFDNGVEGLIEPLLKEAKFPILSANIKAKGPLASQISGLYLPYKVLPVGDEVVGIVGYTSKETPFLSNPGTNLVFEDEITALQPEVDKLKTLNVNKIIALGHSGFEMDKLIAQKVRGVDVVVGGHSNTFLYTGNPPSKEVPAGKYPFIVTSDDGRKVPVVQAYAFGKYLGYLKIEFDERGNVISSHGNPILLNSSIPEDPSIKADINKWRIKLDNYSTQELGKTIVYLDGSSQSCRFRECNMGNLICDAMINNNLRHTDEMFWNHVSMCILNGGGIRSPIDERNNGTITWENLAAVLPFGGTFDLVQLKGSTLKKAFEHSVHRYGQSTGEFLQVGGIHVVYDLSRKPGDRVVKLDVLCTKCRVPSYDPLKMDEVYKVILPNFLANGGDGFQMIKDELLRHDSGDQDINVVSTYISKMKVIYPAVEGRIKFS
Assay: Co-culture of CD73-expressing DP8α TREG clones with VPD-stained CD4+ T cells, with or without CD73 inhibitors; proliferation as percentage of VPD LOW CD4+ T cells
Format: cell-based
Settings: 1:1 co-culture, proliferation measured 6 days later; three concentrations per inhibitor; compared to no treatment

## Nc1ncnc2c1ncn2[C@@H]1O[C@H](COP(=O)([O-])CP(=O)(O)O)[C@@H](O)[C@H]1O.[Na+] [Adenosine 5′-(α,β-methylene)diphosphate sodium salt]
  Effect on suppressive function of CD73-expressing DP8α TREG clones (inhibition of CD4+ T cell proliferation): drastically impaired the suppressive function
